Data: patent US20070270431A1, “Preventive and/or Therapeutic Medicine for Rheumatoid Arthritis” (Kowa Co., Ltd., priority 2004, published 2007)

Test system: rats of a collagen-induced arthritis model
Assay: Suppression of both-hindlimb edema in rats of a collagen-induced arthritis model
Type: in vivo, rat
Details: 30 days after initial sensitization, pyridazinone 30 mg/kg twice daily, methotrexate 0.05 mg/kg once daily
Experimental: The effect on suppressing edema of both hindlimbs by 2-benzyl-5-(4-chlorophenyl)-6-4-(methylthio)phenyl]-2H-pyridazin-3-one (synthesized through the aforementioned method) and methotrexate were determined both in the cases of combined administration and solo administration through the following procedure. For the experiment-rats of a collagen-induced arthritis model were used. (FDA, CBER, CDER, CDRH: Guidance for industry—Clinical development programs for drugs devices and biological products for the treatment of rheumatoid arthritis (RA)-(1999)). Lewis female rats (LFW/Crj) (obtained from Charles River Laboratories Japan, Inc.) were employed as test animals.
For each 8-week-old LEW/Crj rat, the volume of a portion from the ankle to the toe tip of each hindlimb was measured by means of a plethysmometer for small animals (TK-101CMP, product of Unicom) and the total volume was employed as a volume of the hindlimbs (hereinafter referred to as both-hindlimb volume) at the start of the test (hereinafter referred to as Pre value). By use of the Pre value as an index, the rats were divided into groups by one-parameter-based block randomization so that the values in the groups were averaged out.
The collagen emulsion for sensitization employed for inducing arthritis in rats was prepared by homogenizing a 0.3% Type II collagen liquid (product of Collagen Research Center), adjuvant peptide (product of Peptide Institute, Inc.), and adjuvant incomplete Freund (product of DIFCO) by means of a Handy Micro Homogenizer (product of Microtec Nition) under cooling with ice. The thus-prepared emulsion was intracutaneously injected to 10 sites in the back of each rat at 0.1 mL/site, to thereby initially sensitize the rat. Seven days after initial sensitization the same emulsion (0.12 mL) was intracutaneously injected to the tail head of the rat for booster sensitization
Administration of medicines was carried out on the day after initial sensitizaton to day 29. To the 2-benzyl-5-(4-chlorophenyl)-68 4-(methylthio)phenyl]-2H-pyridazin-3-one solo administration group, the medicine was orally administered twice; in the morning (9:00 to 11:00) and in the evening (15:30 to 17:30) at a dose of 30 mg/kg. […]
Thirty days after initial sensitization, both-hindlimb volume was measured. Volume of both-hindlimb edema was calculated by subtracting the Pre value from the thus-measured value.
Table 1 and FIG. 1 show both-hindlimb edema volume of rats which was measured 30 days after initial sensitization where the rats were divided into the 2-benzyl-5-(4-chlorophenyl)-6-[4-(methylthio)phenyl]-2H-pyridazin-3-one solo administration group, the methotrexate solo administration group, and the combined administration group. […]

SMILES: CSc1ccc(-c2nn(Cc3ccccc3)c(=O)cc2-c2ccc(Cl)cc2)cc1 [2-benzyl-5-(4-chlorophenyl)-6-[4-(methylthio)phenyl]-2H-pyridazin-3-one]
- Both-hindlimb edema volume (oral administration from day after sensitization to day 29, average of seven rats ± standard error): 1.04 ± 0.32 mL
- Edema suppression effect (in words) (oral): did not result in potent edema suppression effects
- Relative index (average edema volume of administration group / control group) (oral): 0.66
- Percent edema suppression (vs control group, oral): 34%
